Experimental data taken from PMC8640510 (Cell Death and Differentiation, 2021).
“Also recorded” adds a separate entry of the source.

Target: SARS-CoV-2 NSP14/10 complex (ExoN activity) (Severe acute respiratory syndrome coronavirus 2, UniProt P0DTD1)
Assay: biochemical
Type: biochemical

| Structure (SMILES) | NSP14/10-inhibitory activity (in words) | IC50 [µM] |
| --- | --- | --- |
| C[C@@H]1CCO[C@H]2Cn3cc(C(=O)NCc4ccc(F)cc4F)c(=O)c(O)c3C(=O)N12 [Dolutegravir, reference compound] | detectable NSP14/10-inhibitory activities | – |
| Cc1ccc2ccc(C(=O)O)c(O)c2n1 [#38] | no observed inhibition; also recorded: does not inhibit NSP14 | – |
| O=C1Cc2ccccc2C(=O)N1O [N-Hydroxy-isoquinoline-1,3-dione, reference compound] | detectable NSP14/10-inhibitory activities | – |
| CC(C)=CCc1c(O)ccc(C(=O)/C=C/c2ccc(O)cc2)c1O [#96, Isobavachalcone] | – | 17.4 ± 1.39 |
| CC(C)=CCOc1ccc(/C=C/C(=O)c2ccc(OCC=C(C)C)cc2OCC(=O)O)cc1 [#102, Sofalcone, reference compound] | – | 22 ± 6.02 |
